Data from PMC11121837, “Impact of Nitric Oxide-Release Kinetics on Antifungal Activity” (Journal of Fungi, 2024).
In brackets after ≈: the same amount, converted by molar mass. Several values for one entry are separate records, joined by “and”; a condition that tells them apart may be missing. Equal values may be shown once. Read-outs that look alike come from different tables or passages of the source.

What was measured:
Candida albicans = assay: Susceptibility assay (MIC, broth microdilution, CLSI M27); format: cell-based; details: for MIC: 24 h
Candida auris = assay: as above; format: cell-based; details: for MIC: Candidozyma auris, 24 h; for resistance of strain to antifungal (breakpoint): C. auris ATCC MYA-5001, CLSI/EUCAST breakpoints
Cryptococcus neoformans = assay: as above; format: cell-based; details: for MIC: Cryptococcus neoformans, ATCC208821, 72 h, 72 h
[1] = test system: Aspergillus fumigatus spores; assay: Susceptibility assay for sporulating fungi (MIC, EUCAST E.Def.9.4); format: cell-based; details: for MIC: ATCC1022, Aspergillus fumigatus ATCC 1022 spores
C. auris (MYA-5001) = format: cell-based, Candida auris; details: C. auris; daily exposure to 1/10th of MIC; by passage 5
[2] = test system: C. neoformans (ATCC208821); format: cell-based, Cryptococcus neoformans; details: C. neoformans; daily exposure to 1/10th of MIC; by passage 5
[3] = Cryptococcus neoformans ATCC 208821
[4] = Cryptococcus neoformans ATCC MYA-4566
[5] = Cryptococcus neoformans ATCC MYA-4567

Nc1nc(=O)[nH]cc1F [5-fluorocytosine, reference compound]
MIC (Candida albicans; Candida albicans ATCC MYA-2876): 0.125 µg/mL (≈ 0.968 µM) | MIC (Candida auris; Candida auris ATCC MYA-5001): 2 µg/mL (≈ 15.5 µM) | MIC (Cryptococcus neoformans; [3]): 4 µg/mL (≈ 31 µM) | MIC [1]: > 62.5 µg/mL | increase of MIC and MFC values after serial passaging (C. auris (MYA-5001)): over 256 fold | increase of MIC and MFC values after serial passaging [2]: over 256 fold

NCCNCCN [DETA, Diethylenetriamine, reference compound]
MIC of base scaffold (Candida albicans; Candida albicans ATCC 14053): > 20 mg/mL | MIC of base scaffold (Candida albicans; Candida albicans ATCC 18804): > 20 mg/mL | MIC of base scaffold (Candida albicans; Candida albicans ATCC MYA-2876): > 20 mg/mL | MIC of base scaffold (Candida auris; Candida auris ATCC MYA-5000): > 20 mg/mL | MIC of base scaffold (Candida auris; Candida auris ATCC MYA-5001): > 20 mg/mL | MIC of base scaffold (Candida auris; Candida auris ATCC MYA-5003): > 20 mg/mL | MIC of base scaffold (Cryptococcus neoformans; [3]): > 20 mg/mL | MIC of base scaffold (Cryptococcus neoformans; [4]): > 20 mg/mL | MIC of base scaffold (Cryptococcus neoformans; [5]): 10 mg/mL

NCCCNCCCN [DPTA, bis(3-aminopropyl) amine, reference compound]
MIC of base scaffold (Candida albicans): 20 mg/mL | MIC of base scaffold (Candida auris): > 20 mg/mL | MIC of base scaffold (Cryptococcus neoformans): 5 mg/mL and 2.5 mg/mL

NCCCNCCCCNCCCN [SPER, spermine, reference compound]
MIC of base scaffold (Candida albicans; Candida albicans ATCC 14053): 20 mg/mL | MIC of base scaffold (Candida albicans; Candida albicans ATCC 18804): > 20 mg/mL | MIC of base scaffold (Candida albicans; Candida albicans ATCC MYA-2876): > 20 mg/mL | MIC of base scaffold (Candida auris; Candida auris ATCC MYA-5000): > 20 mg/mL | MIC of base scaffold (Candida auris; Candida auris ATCC MYA-5001): > 20 mg/mL | MIC of base scaffold (Candida auris; Candida auris ATCC MYA-5003): > 20 mg/mL | MIC of base scaffold (Cryptococcus neoformans; [3]): 5 mg/mL | MIC of base scaffold (Cryptococcus neoformans; [4]): 2.5 mg/mL | MIC of base scaffold (Cryptococcus neoformans; [5]): 2.5 mg/mL

C[C@@H]1[C@H](O)[C@@H](C)/C=C/C=C/C=C/C=C/C=C/C=C/C=C/[C@H](O[C@@H]2O[C@H](C)[C@@H](O)[C@H](N)[C@@H]2O)C[C@@H]2O[C@](O)(C[C@@H](O)C[C@@H](O)[C@H](O)CC[C@@H](O)C[C@@H](O)CC(=O)O[C@H]1C)C[C@H](O)[C@H]2C(=O)O [amphotericin B, reference compound]
MIC (Candida albicans; Candida albicans ATCC MYA-2876): 0.25 µg/mL (≈ 0.271 µM) | MIC (Candida auris; Candida auris ATCC MYA-5001): 0.5 µg/mL (≈ 0.541 µM) | MIC (Cryptococcus neoformans; [3]): 0.195 µg/mL (≈ 0.211 µM) | resistance of strain to antifungal (breakpoint) ([1]; A. fumigatus ATCC 1022, CLSI/EUCAST breakpoints): resistant | MIC [1]: 2.5 µg/mL (≈ 2.71 µM)

CN(Cc1ccc(C(C)(C)C)cc1)Cc1cccc2ccccc12 [butenafine, reference compound]
MIC (Candida albicans; Candida albicans ATCC MYA-2876): > 4000 µg/mL | MIC (Candida auris; Candida auris ATCC MYA-5001): > 4000 µg/mL | MIC (Cryptococcus neoformans; [3]): 0.3 µg/mL (≈ 0.945 µM) | MIC [1]: > 500 µg/mL

CC[C@H](C)C[C@H](C)CCCCCCCCC(=O)N[C@H]1C[C@@H](O)[C@@H](NCCN)NC(=O)[C@@H]2[C@@H](O)CCN2C(=O)[C@H]([C@H](O)CCN)NC(=O)[C@H]([C@H](O)[C@@H](O)c2ccc(O)cc2)NC(=O)[C@@H]2C[C@@H](O)CN2C(=O)[C@H]([C@@H](C)O)NC1=O [caspofungin, reference compound]
MIC (Candida albicans; Candida albicans ATCC MYA-2876): 0.25 µg/mL (≈ 0.229 µM) | resistance of strain to antifungal (breakpoint) (Candida auris): resistant | MIC (Candida auris; Candida auris ATCC MYA-5001): > 32 µg/mL | MIC (Cryptococcus neoformans; [3]): 32 µg/mL (≈ 29.3 µM) | MIC [1]: 125 µg/mL (≈ 114 µM)

OC(Cn1cncn1)(Cn1cncn1)c1ccc(F)cc1F [fluconazole, reference compound]
resistance of strain to antifungal (breakpoint) (Candida albicans; C. albicans ATCC MYA-2876, CLSI/EUCAST breakpoints): resistant | MIC (Candida albicans; Candida albicans ATCC MYA-2876): > 32 µg/mL | resistance of strain to antifungal (breakpoint) (Candida auris): resistant | MIC (Candida auris; Candida auris ATCC MYA-5001): > 32 µg/mL | MIC (Cryptococcus neoformans; [3]): 4 µg/mL (≈ 13.1 µM) | MIC [1]: > 125 µg/mL

Clc1ccc(COC(Cn2ccnc2)c2ccc(Cl)cc2Cl)c(Cl)c1 (stereo not drawn) [miconazole, reference compound]
MIC (Candida albicans; Candida albicans ATCC MYA-2876): 60 µg/mL (≈ 144 µM) | MIC (Candida auris; Candida auris ATCC MYA-5001): 4 µg/mL (≈ 9.61 µM) | MIC (Cryptococcus neoformans; [3]): 0.5 µg/mL (≈ 1.2 µM) | MIC [1]: > 500 µg/mL
